Like-named read-outs stand apart in the source and are kept apart here.
Legend:
cerebellar granule cells [1] = experiment: Protective effect on exogenous glutamate induced neurotoxicity, pretreatment, MTT test; format: cell-based, Sprague-Dawley rats; settings: glutamate 100 μM, 2 hours pretreatment
Experimental: Primary cell cultures of cerebellar granule Cells were prepared from 6 day old Sprague-Dawley rats. Neurons were grown in 35 mm plates for 11-13 days and maintained in a humid environment (95% air and 5% CO2). Cultures (3×10^6 cells/plate) are mainly formed by granule cells (95%) with a small amount (5%) of glial cells (Gallo V. et al.: Selective release of glutamate from cerebellar granule cells differentiating in culture. Proc. Natl. Acad. Sci. USA 79, 7919-23, 1982). Glial proliferation was prevented by arabinofuranoside cytosine.
Derivative ND37 was solubilized at a concentration of 1×10^-2 M in dimethylsulfoxide (1% DMSO) and then diluted at various concentrations in Locke's solution (154 mM NaCl/1/5.6 mM KCl/3.6 mM NaHCO3 /2.3 mM CaCl2 /1 mM MgCl2 /5.6 mM glucose/5 mM HEPES, pH 7.4). The following concentrations were tested: 5×10^-6 M, 1×10^-5 M, and 2×10^-5 M.
The cell culture medium was aspirated from the plates (and correctly maintained). Plates were washed (3×2 ml) with Locke's solution, and solutions (1.5 ml) containing the compound to be tested (concentrations from 5×10^-6 M to 2×10^-5 M) were added and incubated for 2 hours in an incubator at 37° C. (5% CO2).
Treated cells were washed (3×2 ml) with Locke's solution+10% fetal calf serum, then washed (3×2 ml) with Locke's solution without Mg^++. 100 μM glutamate (1.5 ml) in Locke's solution (-Mg^++) or culture medium (controls) were added. Incubation with glutamate was performed for 15 minutes at room temperature (27° C.). Glutamate was removed, the plates were washed with Locke's solution (2×2 ml), and then incubated in presence of the starting medium (correctly maintained) for 24 hours at 37° C. in an incubator (5% C2 O). At the end of the incubation, cellular viability was assayed via quantification by the MTT colorimetric test (Mosmann T.: Rapid colorimetric assay for cellular growth and survival: application to proliferation and cytotoxicity assays. J. Immunol. Meth. 65, 55: 63, 1983 and modified according to Skaper S. D. et al.: Death of cultured hippocampal pyramidal neurons induced by pathological activation of N-methyl-D-aspartate receptors is reduced by monosialogangliosides. J. Pharm. Exp. Ter. 259,1 452-457, 1991). Data are expressed as % survival. The significance was calculated according to the Dunnett test.

cerebellar granule cells [2] = experiment: Extracellular glutamate and aspartate content in potassium induced depolarization (HPLC); format: cell-based, Sprague-Dawley rats
Experimental: Primary cell cultures of cerebellar granule cells were prepared from 8 day old Sprague-Dawley rats.
Neurons were grown in 35 mm plates for 11-13 days and maintained in a humid environment (95% air and 5% CO2). Cultures (3×10^6 cells/plate) are mainly formed by granule cells (95%, with a small amount (5%) of glial cells (Gallo V. et al.: Selective release of glutamate from cerebellar granule cells differentiating in culture. Proc. Natl. Acad. Sci. USA 79, 7919-23, 1982). Glial proliferation was prevented by arabinofuranoside cytosine.
Derivative ND37 was solubilized at a concentration of […] in dimethylsulfoxide (1% DMSO), and then diluted at various concentrations (0.1-1-10-20 μM) in Locke's solution (154 mM NaCl/5.6 mM KCl/3.6 mM NaHCO3 /2.3 mM CaCl2 /1 mM MgCl2 /5.6mM glucose/5 mM HEPES, pH 7.4). […]
The cell culture medium was aspirated from the plates. Plates were washed (3×2 ml) with Locke's solution, and solutions (750 μl) containing the compound to be tested (concentrations from 0.1 to 20 μM) were added and incubated for 2 hours in an incubator at 37° C. (5% CO2) both in the presence and absence of different depolarizing concentrations of KCl (between 5 and 50 mM). The incubation medium was gathered, filtered through a 0.2 μ filter, and processed (220 μl) for the analysis of the amino acid content.
The glutamate and aspartate content (expressed as μM) was evaluated by HPLC (high pressure liquid chromatography), according to Bidlingmeryer B. A. et al., J. Chromatogr. 336, 93-104, 1984.

[3] = controls + ND 37 (20 uM), no KCl
[4] = group 3: KCl (50 mM) + ND37 (20 uM) as printed, corresponding group KCl (30 mM)
[5] = group 4: KCl (50 mM) + ND37 (20 uM), Table 5
[6] = group 5: KCl (50 mM) + ND37 (20 uM) as printed, corresponding group KCl (25 mM)
[7] = group 6: KCl (50 mM) + ND37 (20 uM) as printed, corresponding group KCl (15 mM)

## CCCCCCCCCCCCCCCC(=O)NC1C(O)CC(OCC)(C(=O)N(C)C)OC1C(O)C(O)CO (stereo not drawn) [ND37, β-2-O-ethylglycoside of the dimethylamide of N-palmitoylneuraminic acid]
Cerebellar granule cells [1]; Rattus norvegicus, ND37 1 × 10^-5 M, read-out: % survival
  viability at 10 µM: ~63%
Cerebellar granule cells [1]; Rattus norvegicus, ND37 2 × 10^-5 M, read-out: % survival
  viability at 20 µM: ~83%
Cerebellar granule cells [1]; Rattus norvegicus, ND37 5 × 10^-6 M, read-out: % survival
  viability at 5 µM: 37 ± 5%
Cerebellar granule cells [1]; ND37 1 × 10^-5 M
  MTT values: 0.123 ± 0.006
Cerebellar granule cells [1]; ND37 2 × 10^-5 M
  MTT values: 0.326 ± 0.016
Cerebellar granule cells [1]; ND37 5 × 10^-6 M
  MTT values: 0.110 ± 0.015
Cerebellar granule cells [2]; 20 μM
  glutamate increase induced by KCl in the culture medium: completely abolished
Cerebellar granule cells [2]; 20 μM, KCl 15, 25, 30, and 50 mM
  extracellular increase of glutamate and aspartate induced by KCl: completely abolished
Cerebellar granule cells [2]; KCl (50 mM) + ND37 (0.1 uM)
  Extracellular glutamate content: 12.60 ± 0.57 µM
Cerebellar granule cells [2]; KCl (50 mM) + ND37 (1 uM)
  Extracellular glutamate content: 13.30 ± 1.33 µM
Cerebellar granule cells [2]; KCl (50 mM) + ND37 (10 uM)
  Extracellular glutamate content: 5.60 ± 2.37 µM
Cerebellar granule cells [2]; KCl (50 mM) + ND37 (20 uM), Table 4
  Extracellular glutamate content: 0.11 ± 0.09 µM
Cerebellar granule cells [2]; Rattus norvegicus, 2 h, KCl (50 mM) + ND37 (0.1 uM)
  activity at 0.1 µM: 72%
Cerebellar granule cells [2]; Rattus norvegicus, 2 h, KCl (50 mM) + ND37 (1 uM)
  activity at 1 µM: 76%
Cerebellar granule cells [2]; Rattus norvegicus, 2 h, KCl (50 mM) + ND37 (10 uM)
  activity at 10 µM: 32%
Cerebellar granule cells [2]; Rattus norvegicus, 2 h, KCl (50 mM) + ND37 (20 uM), Table 4, read-out: % KCl 50 Mm (extracellular glutamate)
  activity at 20 µM: 0.01%
Cerebellar granule cells [2]; Rattus norvegicus, 2 h, group 3: KCl (50 mM) + ND37 (20 uM) as printed, corresponding group KCl (30 mM), read-out: % corresp. KCl (aspartate)
  activity at 20 µM: 0.06%
Cerebellar granule cells [2]; Rattus norvegicus, 2 h, group 3: KCl (50 mM) + ND37 (20 uM) as printed, corresponding group KCl (30 mM), read-out: % corresp. KCl (glutamate)
  activity at 20 µM: 0.01%
Cerebellar granule cells [2]; Rattus norvegicus, 2 h, group 4: KCl (50 mM) + ND37 (20 uM), Table 5, read-out: % corresp. KCl (aspartate)
  activity at 20 µM: 0.13%
Cerebellar granule cells [2]; Rattus norvegicus, 2 h, group 4: KCl (50 mM) + ND37 (20 uM), Table 5, read-out: % corresp. KCl (glutamate)
  activity at 20 µM: 0.02%
Cerebellar granule cells [2]; Rattus norvegicus, 2 h, group 5: KCl (50 mM) + ND37 (20 uM) as printed, corresponding group KCl (25 mM), read-out: % corresp. KCl (aspartate)
  activity at 20 µM: 0.28%
Cerebellar granule cells [2]; Rattus norvegicus, 2 h, group 5: KCl (50 mM) + ND37 (20 uM) as printed, corresponding group KCl (25 mM), read-out: % corresp. KCl (glutamate)
  activity at 20 µM: 0.06%
Cerebellar granule cells [2]; Rattus norvegicus, 2 h, group 6: KCl (50 mM) + ND37 (20 uM) as printed, corresponding group KCl (15 mM), read-out: % corresp. KCl (aspartate)
  activity at 20 µM: 0.09%
Cerebellar granule cells [2]; Rattus norvegicus, 2 h, group 6: KCl (50 mM) + ND37 (20 uM) as printed, corresponding group KCl (15 mM), read-out: % corresp. KCl (glutamate)
  activity at 20 µM: 0.34%
Cerebellar granule cells [2]; Rattus norvegicus, 2 h, 0.1 μM, read-out: reduction of extracellular glutamate induced by KCl
  inhibition at 0.1 µM: ~30%
Cerebellar granule cells [2]; [3]
  Extracell. aspartate content: 0.039 µM
  Extracell. glutamate content: 0.362 µM
Cerebellar granule cells [2]; doses up to 20 μM
  basal levels (controls) of extracellular glutamate and aspartate: did not modify
Cerebellar granule cells [2]; [4]
  Extracell. aspartate content: 0.063 µM
  Extracell. glutamate content: 0.318 µM
Cerebellar granule cells [2]; [5]
  Extracell. aspartate content: 0.078 µM
  Extracell. glutamate content: 0.246 µM
Cerebellar granule cells [2]; [6]
  Extracell. aspartate content: 0.107 µM
  Extracell. glutamate content: 0.330 µM
Cerebellar granule cells [2]; [7]
  Extracell. aspartate content: 0.046 µM
  Extracell. glutamate content: 0.899 µM

— patent publication US5677285A, “Derivatives of neuraminic acid” (Fidia S.P.A., priority 1992, dated 1997)
